According to the NIST ThermoML archive (doi:10.1021/je1002626):

Key:
[1] = wn = mass fraction of the nth substance listed; conditions: for surface tension liquid-gas: Ring tensiometer; for mass density: 101.3 kPa, Liquid, Pycnometric method
[2] = 101.33 kPa, Liquid, Pycnometric method

CNCCO [2-(methylamino)ethanol] + O
[1]
Conditions | mass density [kg/m3] | surface tension liquid-gas [mN/m]
298 K, w1 = 0.1 | – | 60.85
298 K, w1 = 0.2 | – | 56.11
298 K, w1 = 0.3 | – | 52.51
298 K, w1 = 0.4 | – | 49.16
298.15 K, w1 = 0.178 | 996.31 | –
298.15 K, w1 = 1 | 936.18 | –
303 K, w1 = 0.1 | – | 60.02
303 K, w1 = 0.2 | – | 55.28
303 K, w1 = 0.3 | – | 52.33
303 K, w1 = 0.4 | – | 48.15
303.15 K, w1 = 0.178 | 994.38 | –
303.15 K, w1 = 1 | 932.26 | –
308 K, w1 = 0.1 | – | 59.5
308 K, w1 = 0.2 | – | 54.5
308 K, w1 = 0.3 | – | 51.46
308 K, w1 = 0.4 | – | 47.2
308.15 K, w1 = 0.178 | 993.12 | –
313 K, w1 = 0.1 | – | 58.65
313 K, w1 = 0.2 | – | 53.42
313 K, w1 = 0.3 | – | 50.18
313 K, w1 = 0.4 | – | 46.67
313.15 K, w1 = 0.178 | 990.09 | –
313.15 K, w1 = 1 | 924.42 | –
318 K, w1 = 0.1 | – | 57.66
318 K, w1 = 0.2 | – | 52.78
318 K, w1 = 0.3 | – | 49.42
318 K, w1 = 0.4 | – | 45.72
318.15 K, w1 = 0.178 | 988.61 | –
323 K, w1 = 0.1 | – | 56.89
323 K, w1 = 0.2 | – | 51.79
323 K, w1 = 0.3 | – | 48.9
323 K, w1 = 0.4 | – | 44.92
323.15 K, w1 = 0.178 | 984.89 | –
323.15 K, w1 = 1 | 916.48 | –

CNCCO [2-(methylamino)ethanol]
[2]
Conditions | mass density [kg/m3]
298.15 K | 936.18
303.15 K | 932.26
313.15 K | 924.42
323.15 K | 916.48
